From PubChem BioAssay AID1259407 (Chemical Carcinogenesis Research Information System (CCRIS), 2018)
Activity calls are given as the source filed them. No rule for the calls is given here.

System: CCRIS mutagenicity, Ames/micronucleus/aberration tests
Assay: CCRIS mutagenicity studies
[1] = Test System: AMES SALMONELLA TYPHIMURIUM, Strain/Indicator: TA98, Metabolic Activation: NONE, Method: STANDARD PLATE
[2] = Test System: AMES SALMONELLA TYPHIMURIUM, Strain/Indicator: TA100, Metabolic Activation: NONE, Method: STANDARD PLATE
[3] = Test System: AMES SALMONELLA TYPHIMURIUM, Strain/Indicator: TA100, Metabolic Activation: RAT, LIVER, S-9, AROCLOR 1254, Method: STANDARD PLATE

**Q.** NC(=O)c1cc(N2CC2)c([N+](=O)[O-])cc1[N+](=O)[O-] was tested. Which mutagenic call [1] did it give?
**A.** inactive; negative

**Q.** What about the mutagenic call [2] of the same compound?
**A.** active; positive

**Q.** What about the mutagenic call (Test System: E. COLI, Strain/Indicator: NFR-343, Metabolic Activation: NONE, Method: AGAR OVERLAY) of the same compound?
**A.** active; positive

**Q.** And the mutagenic call (Test System: E. COLI, Strain/Indicator: NFR-343, Metabolic Activation: NONE, Method: STANDARD PLATE)?
**A.** active; positive

**Q.** What about the mutagenic call (Test System: E. COLI, Strain/Indicator: NFR-343, Metabolic Activation: RAT, LIVER, S-9, AROCLOR 1254, Method: STANDARD PLATE) of the same compound?
**A.** active; positive

**Q.** What about the mutagenic call (Test System: E. COLI, Strain/Indicator: WP2, Metabolic Activation: NONE, Method: STANDARD PLATE) of the same compound?
**A.** active; positive

**Q.** What about the mutagenic call (Test System: E. COLI, Strain/Indicator: WP2 UVRA (PKM101), Metabolic Activation: NONE, Method: STANDARD PLATE) of the same compound?
**A.** active; positive

**Q.** And the mutagenic call (Test System: E. COLI, Strain/Indicator: WP2 UVRA, Metabolic Activation: NONE, Method: AGAR OVERLAY)?
**A.** active; positive

**Q.** What about the mutagenic call (Test System: E. COLI, Strain/Indicator: WP2 UVRA, Metabolic Activation: NONE, Method: STANDARD PLATE) of the same compound?
**A.** active; positive

**Q.** And the mutagenic call (Test System: E. COLI, Strain/Indicator: WP2 UVRA, Metabolic Activation: RAT, LIVER, S-9, AROCLOR 1254, Method: STANDARD PLATE)?
**A.** active; positive

**Q.** How did the mutagenic call [1] turn out when O=C(CC(O)C(=O)OCCBr)OCCBr (configuration not stated) was run?
**A.** inactive; negative

**Q.** What about the mutagenic call [2] of the same compound?
**A.** inactive; negative

**Q.** What about the mutagenic call [3] of the same compound?
**A.** active; positive

**Q.** With C=CC(C)(C)c1cc2cc3c(cc2oc1=O)OC(C(C)(C)OC(C)=O)C3 (configuration not stated) as the compound, how does the mutagenic call [1] read?
**A.** inactive; negative

**Q.** And the mutagenic call (Test System: AMES SALMONELLA TYPHIMURIUM, Strain/Indicator: TA98, Metabolic Activation: RAT, LIVER, S-9, PHENOBARBITAL, Method: STANDARD PLATE)?
**A.** inactive; negative

**Q.** How did the mutagenic call (Test System: AMES SALMONELLA TYPHIMURIUM, Strain/Indicator: TA100, Metabolic Activation: NONE, Method: LIQUID INCUBATION) turn out when Cc1ccc(NC2OC[C@@H](O)[C@@H](O)[C@@H]2O)cc1 (some centres not stated) was run?
**A.** active; positive

**Q.** Cn1cc2ccc([N+](=O)[O-])cc2n1 was tested. Which mutagenic call [1] did it give?
**A.** active; positive

**Q.** How did the mutagenic call (Test System: AMES SALMONELLA TYPHIMURIUM, Strain/Indicator: TA97, Metabolic Activation: NONE, Method: PREINCUBATION) turn out when CCCC(=O)OCC was run?
**A.** inactive; negative

**Q.** And the mutagenic call (Test System: AMES SALMONELLA TYPHIMURIUM, Strain/Indicator: TA97, Metabolic Activation: RAT, LIVER, S-9, AROCLOR 1254, Method: PREINCUBATION)?
**A.** inactive; negative

**Q.** What about the mutagenic call (Test System: AMES SALMONELLA TYPHIMURIUM, Strain/Indicator: TA102, Metabolic Activation: NONE, Method: PREINCUBATION) of the same compound?
**A.** inactive; negative

**Q.** And the mutagenic call (Test System: AMES SALMONELLA TYPHIMURIUM, Strain/Indicator: TA102, Metabolic Activation: RAT, LIVER, S-9, AROCLOR 1254, Method: PREINCUBATION)?
**A.** inactive; negative

**Q.** Which mutagenic call (Test System: E. COLI, Strain/Indicator: CL101P, Metabolic Activation: NONE, Method: PREINCUBATION) does the source give for O[C@@H]1[C@H]2O[C@H]2c2c(ccc3ccc4ccccc4c23)[C@H]1O here?
**A.** active; positive

**Q.** What about the mutagenic call (Test System: E. COLI, Strain/Indicator: CL102P, Metabolic Activation: NONE, Method: PREINCUBATION) of the same compound?
**A.** active; positive

**Q.** What about the mutagenic call (Test System: E. COLI, Strain/Indicator: CL103P, Metabolic Activation: NONE, Method: PREINCUBATION) of the same compound?
**A.** active; positive

**Q.** And the mutagenic call (Test System: E. COLI, Strain/Indicator: CL104P, Metabolic Activation: NONE, Method: PREINCUBATION)?
**A.** active; positive

**Q.** And the mutagenic call (Test System: E. COLI, Strain/Indicator: CL105P, Metabolic Activation: NONE, Method: PREINCUBATION)?
**A.** active; positive

**Q.** And the mutagenic call (Test System: E. COLI, Strain/Indicator: CL106P, Metabolic Activation: NONE, Method: PREINCUBATION)?
**A.** active; positive

**Q.** How did the mutagenic call (Test System: AMES SALMONELLA TYPHIMURIUM, Strain/Indicator: TA98, Metabolic Activation: HAMSTER, LIVER, S-9, AROCLOR 1254, Method: STANDARD PLATE) turn out when O=C(C(=O)c1ccccc1)c1ccccc1 was run?
**A.** inactive; negative

**Q.** And the mutagenic call [1]?
**A.** inactive; negative

**Q.** And the mutagenic call (Test System: AMES SALMONELLA TYPHIMURIUM, Strain/Indicator: TA98, Metabolic Activation: RAT, LIVER, S-9, AROCLOR 1254, Method: STANDARD PLATE)?
**A.** inactive; negative

**Q.** And the mutagenic call (Test System: AMES SALMONELLA TYPHIMURIUM, Strain/Indicator: TA100, Metabolic Activation: HAMSTER, LIVER, S-9, AROCLOR 1254, Method: STANDARD PLATE)?
**A.** inactive; negative

**Q.** And the mutagenic call [2]?
**A.** inactive; negative

**Q.** And the mutagenic call [3]?
**A.** inactive; negative

**Q.** And the mutagenic call (Test System: AMES SALMONELLA TYPHIMURIUM, Strain/Indicator: TA1535, Metabolic Activation: HAMSTER, LIVER, S-9, AROCLOR 1254, Method: STANDARD PLATE)?
**A.** inactive; negative

**Q.** What about the mutagenic call (Test System: AMES SALMONELLA TYPHIMURIUM, Strain/Indicator: TA1535, Metabolic Activation: NONE, Method: STANDARD PLATE) of the same compound?
**A.** inactive; negative

**Q.** And the mutagenic call (Test System: AMES SALMONELLA TYPHIMURIUM, Strain/Indicator: TA1535, Metabolic Activation: RAT, LIVER, S-9, AROCLOR 1254, Method: STANDARD PLATE)?
**A.** inactive; negative

**Q.** What about the mutagenic call (Test System: AMES SALMONELLA TYPHIMURIUM, Strain/Indicator: TA1537, Metabolic Activation: HAMSTER, LIVER, S-9, AROCLOR 1254, Method: STANDARD PLATE) of the same compound?
**A.** inactive; negative

**Q.** What about the mutagenic call (Test System: AMES SALMONELLA TYPHIMURIUM, Strain/Indicator: TA1537, Metabolic Activation: NONE, Method: STANDARD PLATE) of the same compound?
**A.** inactive; negative

**Q.** And the mutagenic call (Test System: AMES SALMONELLA TYPHIMURIUM, Strain/Indicator: TA1537, Metabolic Activation: RAT, LIVER, S-9, AROCLOR 1254, Method: STANDARD PLATE)?
**A.** inactive; negative

**Q.** And the mutagenic call (Test System: AMES SALMONELLA TYPHIMURIUM, Strain/Indicator: TA1538, Metabolic Activation: HAMSTER, LIVER, S-9, AROCLOR 1254, Method: STANDARD PLATE)?
**A.** inactive; negative

**Q.** What about the mutagenic call (Test System: AMES SALMONELLA TYPHIMURIUM, Strain/Indicator: TA1538, Metabolic Activation: NONE, Method: STANDARD PLATE) of the same compound?
**A.** inactive; negative

**Q.** What about the mutagenic call (Test System: AMES SALMONELLA TYPHIMURIUM, Strain/Indicator: TA1538, Metabolic Activation: RAT, LIVER, S-9, AROCLOR 1254, Method: STANDARD PLATE) of the same compound?
**A.** inactive; negative

**Q.** What about the mutagenic call (Test System: Mouse lymphoma, Strain/Indicator: L5178Y (tk+/tk-), Metabolic Activation: None, Method: Suspension/plate) of the same compound?
**A.** inactive; inconclusive (previous evaluation negative)

**Q.** And the mutagenic call (Test System: Mouse lymphoma, Strain/Indicator: L5178Y (tk+/tk-), Metabolic Activation: Rat, Liver, S-9, Aroclor 1254, Method: Suspension/plate)?
**A.** inactive; negative

**Q.** Which mutagenic call [1] does the source give for O=[N+]([O-])c1cccc2cn[nH]c12 here?
**A.** active; positive

**Q.** Which results are given for CCCCN(CCO)CCCC?
**A.** mutagenic call (Test System: AMES SALMONELLA TYPHIMURIUM, Strain/Indicator: TA98, Metabolic Activation: HAMSTER, LIVER, S-9, AROCLOR 1254 (10%), Method: PREINCUBATION): inactive; negative; mutagenic call (Test System: AMES SALMONELLA TYPHIMURIUM, Strain/Indicator: TA98, Metabolic Activation: NONE, Method: PREINCUBATION): inactive; negative; mutagenic call (Test System: AMES SALMONELLA TYPHIMURIUM, Strain/Indicator: TA98, Metabolic Activation: RAT, LIVER, S-9, AROCLOR 1254 (10%), Method: PREINCUBATION): inactive; negative; mutagenic call (Test System: AMES SALMONELLA TYPHIMURIUM, Strain/Indicator: TA100, Metabolic Activation: HAMSTER, LIVER, S-9, AROCLOR 1254 (10%), Method: PREINCUBATION): inactive; negative; mutagenic call (Test System: AMES SALMONELLA TYPHIMURIUM, Strain/Indicator: TA100, Metabolic Activation: NONE, Method: PREINCUBATION): inactive; negative; mutagenic call (Test System: AMES SALMONELLA TYPHIMURIUM, Strain/Indicator: TA100, Metabolic Activation: RAT, LIVER, S-9, AROCLOR 1254 (10%), Method: PREINCUBATION): inactive; negative; mutagenic call (Test System: AMES SALMONELLA TYPHIMURIUM, Strain/Indicator: TA1535, Metabolic Activation: HAMSTER, LIVER, S-9, AROCLOR 1254 (10%), Method: PREINCUBATION): inactive; negative; mutagenic call (Test System: AMES SALMONELLA TYPHIMURIUM, Strain/Indicator: TA1535, Metabolic Activation: NONE, Method: PREINCUBATION): inactive; negative; mutagenic call (Test System: AMES SALMONELLA TYPHIMURIUM, Strain/Indicator: TA1535, Metabolic Activation: RAT, LIVER, S-9, AROCLOR 1254 (10%), Method: PREINCUBATION): inactive; negative; mutagenic call (Test System: AMES SALMONELLA TYPHIMURIUM, Strain/Indicator: TA1537, Metabolic Activation: HAMSTER, LIVER, S-9, AROCLOR 1254 (10%), Method: PREINCUBATION): inactive; negative; mutagenic call (Test System: AMES SALMONELLA TYPHIMURIUM, Strain/Indicator: TA1537, Metabolic Activation: NONE, Method: PREINCUBATION): inactive; negative; mutagenic call (Test System: AMES SALMONELLA TYPHIMURIUM, Strain/Indicator: TA1537, Metabolic Activation: RAT, LIVER, S-9, AROCLOR 1254 (10%), Method: PREINCUBATION): inactive; negative
